# Where two headings read alike, the source gives them in different places.
# Columns and labels:
# [1] = system: SJSA-1 (p53 wild-type, MDM2 amplified osteosarcoma); test: Protocol A: SRB growth inhibition assay; conditions: read-out: SJSA-1 IC50 (μM) (Protocol A)
# [2] = molecular target: MDM2-p53 interaction (in vitro translated MDM2) (Homo sapiens (Human), UniProt Q00987); test: MDM2-p53 interaction 96-well plate binding assay (ELISA); conditions: for MDM2 % inhibition at 0.0010: at 0.0010 μM
# [3] = system: SJSA-1; test: Protocol B: CellTiter-Glo cell viability assay; conditions: read-out: SJSA1 IC50 (μM) (Protocol B); Protocol B
# MDM2-p53 interaction (in vitro translated MDM2), sequence (Q00987 whole entry): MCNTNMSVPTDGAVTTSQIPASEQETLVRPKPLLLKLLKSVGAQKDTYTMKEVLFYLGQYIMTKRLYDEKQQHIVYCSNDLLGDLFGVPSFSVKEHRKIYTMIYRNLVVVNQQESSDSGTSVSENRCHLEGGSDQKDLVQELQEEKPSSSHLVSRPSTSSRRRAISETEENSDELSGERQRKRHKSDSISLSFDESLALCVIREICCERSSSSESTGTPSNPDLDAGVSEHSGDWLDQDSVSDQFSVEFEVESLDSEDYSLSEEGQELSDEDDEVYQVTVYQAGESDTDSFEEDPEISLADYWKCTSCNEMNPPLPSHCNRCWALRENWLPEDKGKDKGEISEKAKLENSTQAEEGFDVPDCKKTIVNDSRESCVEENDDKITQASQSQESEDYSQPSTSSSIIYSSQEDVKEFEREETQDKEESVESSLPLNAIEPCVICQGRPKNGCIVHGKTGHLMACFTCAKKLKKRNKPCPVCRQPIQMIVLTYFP
Substance,IC50 [1] [µM],MDM2 % inhibition at 0.0010 [2] [%@0.0010],IC50 [3] [µM],also measured
"1-({[(1R)-1-(4-chlorophenyl)-2-[(4-chlorophenyl)methyl]-5-(2-hydroxypropan-2-yl)-3-oxo-2,3-dihydro-1H-isoindol-1-yl]oxy}methyl)cyclopropane-1-carboxylic acid [Example 5]",0.2,–,–,IC50 ([2]; read-out: MDM2 IC50): 3.8 nM
"1-({[(1R)-5-[1-(1-acetylpiperidin-4-yl)-1-hydroxyethyl]-1-(4-chlorophenyl)-2-[(5-chloropyridin-2-yl)methyl]-7-fluoro-3-oxo-2,3-dihydro-1H-isoindol-1-yl]oxy}methyl)cyclopropane-1-carbonitrile [Example 301]",0.07,–,–,MDM2 % at concentration [2]: 75%@0.0010
"2-{[(1R)-1-(4-chlorophenyl)-1-[(1-cyanocyclopropyl)methoxy]-7-fluoro-5-[1-(4-fluoro-1-methylpiperidin-4-yl)-1-hydroxypropyl]-3-oxo-2,3-dihydro-1H-isoindol-2-yl]methyl}pyrimidine-5-carbonitrile [Example 574]",0.021,45,–,–
"2-{[(1R)-1-(4-chlorophenyl)-7-fluoro-5-[(1S)-1-hydroxy-1-(1-methylpiperidin-4-yl)propyl]-3-oxo-1-[(3S)-oxolan-3-yloxy]-2,3-dihydro-1H-isoindol-2-yl]methyl}pyrimidine-5-carbonitrile [Example 557]",0.25,81,–,–
"2-{[(1R)-1-(4-chlorophenyl)-7-fluoro-5-{1-hydroxy-1-[trans-4-hydroxycyclohexyl]propyl}-1-methoxy-3-oxo-2,3-dihydro-1H-isoindol-2-yl]methyl}pyrimidine-5-carbonitrile [Example 504]",0.039,71,–,–
"5-{[(1R)-1-(4-chlorophenyl)-7-fluoro-5-[1-hydroxy-1-(1-methyl-1H-imidazol-4-yl)propyl]-3-oxo-1-[(3S)-oxolan-3-yloxy]-2,3-dihydro-1H-isoindol-2-yl]methyl}pyridine-2-carbonitrile [Example 431]",0.11,48,–,–
"6-{[(1R)-1-(4-chlorophenyl)-7-fluoro-3-oxo-1-[(3S)-oxolan-3-yloxy]-5-[2,2,2-trifluoro-1-hydroxy-1-(1-methyl-1H-pyrazol-4-yl)ethyl]-2,3-dihydro-1H-isoindol-2-yl]methyl}pyridine-3-carbonitrile [Example 428]",0.11,65,–,–
"6-{[(1R)-1-(4-chlorophenyl)-7-fluoro-5-[1-(4-fluorooxan-4-yl)-1-hydroxypropyl]-1-[(2R)-2-hydroxypropoxy]-3-oxo-2,3-dihydro-1H-isoindol-2-yl]methyl}pyridine-3-carbonitrile [Example 497]",0.039,83,–,–
"6-{[(1R)-1-(4-chlorophenyl)-7-fluoro-5-[1-hydroxy-1-(1-methyl-1H-imidazol-4-yl)propyl]-1-(2-methoxyethoxy)-3-oxo-2,3-dihydro-1H-isoindol-2-yl]methyl}pyridine-3-carbonitrile [Example 430]",0.11,59,–,–
"6-{[(1R)-1-(4-chlorophenyl)-7-fluoro-5-{1-hydroxy-1-[trans-4-hydroxycyclohexyl]propyl}-1-methoxy-3-oxo-2,3-dihydro-1H-isoindol-2-yl]methyl}pyridine-3-carbonitrile [Example 521]",0.035,77,–,–
"(2S)-3-{[(1R)-1-(4-Chlorophenyl)-2-[(5-chloropyridin-2-yl)methyl]-7-fluoro-5-(2-hydroxypropan-2-yl)-3-oxo-2,3-dihydro-1H-isoindol-1-yl]oxy}-2-methylpropanamide [Example 167]",0.64,–,–,–
"(3R)-2-[(5-chloro-3-hydroxypyridin-2-yl)methyl]-3-(4-chlorophenyl)-4-fluoro-6-[1-hydroxy-1-(1-methyl-1H-imidazol-4-yl)propyl]-3-[cis-3-hydroxycyclobutoxy]-2,3-dihydro-1H-isoindol-1-one [Example 487]",0.12,59,–,–
"(3R)-3-(4-chlorophenyl)-2-[(3,5-difluoropyridin-2-yl)methyl]-4-fluoro-6-[1-hydroxy-1-(1-methyl-1H-pyrazol-4-yl)ethyl]-3-[(1-hydroxycyclopropyl)methoxy]-2,3-dihydro-1H-isoindol-1-one [Example 351]",–,–,4.3,MDM2 % at concentration ([2]; at 0.10 μM): 25%@0.10
"(3R)-3-(4-chlorophenyl)-2-[(5-chloropyridin-2-yl)methyl]-4-fluoro-3-[(1-{[(2-hydroxyethyl)amino]methyl}cyclopropyl)methoxy]-6-(2-hydroxypropan-2-yl)-2,3-dihydro-1H-isoindol-1-one [Example 326]",–,–,2,MDM2 % at concentration ([2]; at 0.030 μM): 50%@0.030
"(3R)-3-(4-chlorophenyl)-2-[(5-chloropyridin-2-yl)methyl]-4-fluoro-6-[1-hydroxy-1-(1-methylpiperidin-4-yl)ethyl]-3-{[1-(hydroxymethyl)cyclopropyl]methoxy}-2,3-dihydro-1H-isoindol-1-one [Example 555]",–,55,0.079,–
"(3R)-3-(4-chlorophenyl)-2-[(5-chloropyridin-2-yl)methyl]-4-fluoro-6-[1-hydroxy-1-(4-methyl-1H-imidazol-2-yl)ethyl]-3-[(1-hydroxycyclopropyl)methoxy]-2,3-dihydro-1H-isoindol-1-one [Example 332]",–,–,2.6,MDM2 % at concentration ([2]; at 0.030 μM): 60%@0.030
"(3R)-3-(4-chlorophenyl)-2-[(5-chloropyridin-2-yl)methyl]-4-fluoro-6-{1-hydroxy-1-[1-(2-hydroxyacetyl)piperidin-4-yl]ethyl}-3-methoxy-2,3-dihydro-1H-isoindol-1-one [Example 296]",0.11,–,–,MDM2 % at concentration [2]: 62%@0.0010
"(3R)-3-(4-chlorophenyl)-2-[(5-chloropyrimidin-2-yl)methyl]-4-fluoro-3-[(3-fluorooxetan-3-yl)methoxy]-6-[2-hydroxy-1-(piperazin-1-yl)butan-2-yl]-2,3-dihydro-1H-isoindol-1-one [Example 538]",–,–,2.2,MDM2 % inhibition at 0.030 ([2]; at 0.030 μM): 44%@0.030
"(3R)-3-(4-chlorophenyl)-2-[(5-chloropyrimidin-2-yl)methyl]-4-fluoro-3-[(3-fluorooxetan-3-yl)methoxy]-6-[2-hydroxy-1-(piperazin-1-yl)butan-2-yl]-2,3-dihydro-1H-isoindol-1-one [Example 539]",–,41,0.092,–
"(3R)-3-(4-chlorophenyl)-2-[(5-chloropyrimidin-2-yl)methyl]-4-fluoro-6-[1-(4-fluoro-1-methylpiperidin-4-yl)-1-hydroxypropyl]-3-(2-hydroxyethoxy)-2,3-dihydro-1H-isoindol-1-one [Example 565]",0.045,65,–,–
"(3R)-3-(4-chlorophenyl)-2-[(5-chloropyrimidin-2-yl)methyl]-4-fluoro-6-[1-(4-fluoropiperidin-4-yl)-1-hydroxypropyl]-3-[(2R)-2-hydroxypropoxy]-2,3-dihydro-1H-isoindol-1-one [Example 543]",–,68,0.69,–
"(3R)-3-(4-chlorophenyl)-2-[(5-chloropyrimidin-2-yl)methyl]-4-fluoro-6-[1-(4-fluoropiperidin-4-yl)-1-hydroxypropyl]-3-[(3S)-oxolan-3-yloxy]-2,3-dihydro-1H-isoindol-1-one [Example 540]",–,–,1.8,MDM2 % inhibition at 0.030 ([2]; at 0.030 μM): 33%@0.030
"(3R)-3-(4-chlorophenyl)-2-[(5-chloropyrimidin-2-yl)methyl]-4-fluoro-6-[1-(4-fluoropiperidin-4-yl)-1-hydroxypropyl]-3-[cis-3-hydroxycyclobutoxy]-2,3-dihydro-1H-isoindol-1-one [Example 542]",–,–,3.1,MDM2 % inhibition at 0.010 ([2]; at 0.010 μM): 57%@0.010
"(3R)-3-(4-chlorophenyl)-2-[(5-chloropyrimidin-2-yl)methyl]-4-fluoro-6-[1-hydroxy-1-(1-methyl-1H-imidazol-4-yl)propyl]-3-[(3S)-oxolan-3-yloxy]-2,3-dihydro-1H-isoindol-1-one [Example 474]",–,–,1.3,MDM2 % inhibition at 0.030 ([2]; at 0.030 μM): 38%@0.030
"(3R)-3-(4-chlorophenyl)-2-[(5-chloropyrimidin-2-yl)methyl]-4-fluoro-6-[1-hydroxy-1-(1-methyl-1H-imidazol-4-yl)propyl]-3-{[1-(hydroxymethyl)cyclopropyl]methoxy}-2,3-dihydro-1H-isoindol-1-one [Example 476]",–,–,0.6,MDM2 % inhibition at 0.030 ([2]; at 0.030 μM): 51%@0.030
"(3R)-3-(4-chlorophenyl)-2-[(5-chloropyrimidin-2-yl)methyl]-4-fluoro-6-{1-hydroxy-1-[trans-4-hydroxycyclohexyl]propyl}-3-(2-hydroxyethoxy)-2,3-dihydro-1H-isoindol-1-one [Example 519]",–,–,1.9,MDM2 % inhibition at 0.030 ([2]; at 0.030 μM): 35%@0.030
"(3R)-3-(4-chlorophenyl)-4-fluoro-6-[1-hydroxy-1-(1-methyl-1H-pyrazol-4-yl)ethyl]-3-[(1-hydroxycyclopropyl)methoxy]-2-[(5-methoxypyridin-2-yl)methyl]-2,3-dihydro-1H-isoindol-1-one [Example 347]",–,–,1.7,MDM2 % at concentration ([2]; at 0.10 μM): 63%@0.10
"(3R)-6-[1-(1-acetylpiperidin-4-yl)-1-hydroxyethyl]-2-{[5-chloro-3-(hydroxymethyl)pyridin-2-yl]methyl}-3-(4-chlorophenyl)-4-fluoro-3-methoxy-2,3-dihydro-1H-isoindol-1-one [Example 424]",–,–,0.69,MDM2 % inhibition at 0.0030 ([2]; at 0.0030 μM): 45%@0.0030

# Source: patent US20230338337A1, “BIOMARKERS FOR CANCER THERAPY USING MDM2 ANTAGONISTS” (OTSUKA PHARMACEUTICAL CO., LTD., priority 2019, published 2023)
